Values of other authors as cited in patent US9757374B2, “Aripiprazole compositions and methods for its transdermal delivery” (Aequus Pharmaceuticals Inc., priority 2010, dated 2017).

In the case of `O=C1CCc2ccc(OCCCCN3CCN(c4cccc(Cl)c4Cl)CC3)cc2N1` [ARPZ, Aripiprazole], the solubility in water is given as “practically insoluble”.
